Patent US4503043A, “Substituted acyl derivatives of octahydro-1H-isoindole-1-carboxylic acids” (Warner-Lambert Company, priority 1982, dated 1985)
Structures can show the parent of a compound that is named as a salt.

molecular target: T1, guinea pig serum ACE (angiotensin converting enzyme) (Cavia porcellus, UniProt H0UWL7); assay: In vitro ACE Assay (angiotensin converting enzyme inhibitory activity); type: biochemical; details: 10 min preincubation, substrate 3H-hippuryl-glycylglycine, 60 min at 37° C.
T1 construct: ACE from guinea pig serum; from tissue; host or cells: guinea pig serum
T1 sequence (H0UWL7 33-1302): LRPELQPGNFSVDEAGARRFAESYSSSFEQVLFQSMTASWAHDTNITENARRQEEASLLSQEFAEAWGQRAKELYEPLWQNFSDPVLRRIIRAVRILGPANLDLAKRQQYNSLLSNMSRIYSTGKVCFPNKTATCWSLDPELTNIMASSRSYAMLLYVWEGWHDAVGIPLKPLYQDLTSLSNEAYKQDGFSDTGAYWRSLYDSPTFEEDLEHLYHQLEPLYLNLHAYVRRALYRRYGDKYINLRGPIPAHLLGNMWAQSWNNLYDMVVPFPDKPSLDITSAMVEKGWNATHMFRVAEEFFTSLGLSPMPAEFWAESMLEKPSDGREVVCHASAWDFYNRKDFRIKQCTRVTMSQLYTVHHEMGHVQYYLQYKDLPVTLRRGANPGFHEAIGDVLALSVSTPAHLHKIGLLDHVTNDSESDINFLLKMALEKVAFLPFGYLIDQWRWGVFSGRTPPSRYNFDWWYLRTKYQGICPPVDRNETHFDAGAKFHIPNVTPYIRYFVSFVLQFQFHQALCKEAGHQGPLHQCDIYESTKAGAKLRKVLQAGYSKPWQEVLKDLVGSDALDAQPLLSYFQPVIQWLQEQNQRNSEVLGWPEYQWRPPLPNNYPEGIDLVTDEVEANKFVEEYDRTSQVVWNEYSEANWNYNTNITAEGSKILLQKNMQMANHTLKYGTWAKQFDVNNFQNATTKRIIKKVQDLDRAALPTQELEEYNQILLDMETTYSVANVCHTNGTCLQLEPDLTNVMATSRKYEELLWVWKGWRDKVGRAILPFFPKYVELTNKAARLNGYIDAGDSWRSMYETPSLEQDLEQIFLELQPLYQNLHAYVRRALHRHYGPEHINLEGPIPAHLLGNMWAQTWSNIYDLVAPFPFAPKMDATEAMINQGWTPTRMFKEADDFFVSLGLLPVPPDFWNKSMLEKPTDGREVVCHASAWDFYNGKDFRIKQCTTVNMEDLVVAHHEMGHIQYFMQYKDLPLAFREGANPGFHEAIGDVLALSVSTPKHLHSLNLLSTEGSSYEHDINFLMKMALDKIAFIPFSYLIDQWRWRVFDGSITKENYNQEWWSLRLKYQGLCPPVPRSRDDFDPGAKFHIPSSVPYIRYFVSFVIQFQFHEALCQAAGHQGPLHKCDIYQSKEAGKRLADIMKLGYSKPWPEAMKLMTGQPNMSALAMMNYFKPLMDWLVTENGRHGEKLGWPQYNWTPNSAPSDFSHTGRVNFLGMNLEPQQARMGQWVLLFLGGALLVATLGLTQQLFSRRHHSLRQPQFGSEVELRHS
Method: In vitro ACE Assay: Angiotensin converting enzyme (ACE) inhibitory activity is determined by assaying guinea pig serum ACE in the presence and absence of the test compound. ACE from guinea pig serum and the test compounds are preincubated for 10 minutes before the addition of the labelled substrate ^3 H-hippuryl-glycylglycine. After a 60 minute incubation at 37° C. the reaction is stopped by the addition of 0.1N HCl. ACE cleaves the hippuryl-glycyl bond to form the dipeptide glycyl-glycine and ^3 H-hippuric acid. The ^3 H-hippuric acid is then extracted with ethyl acetate and the ACE inhibition of a given sample calculated on the basis of the ^3 H-hippuric acid generated.

| SMILES | IC50 [nM] |
| --- | --- |
| CC(CS)C(=O)N1C(=O)C2CCCCC2C1C(=O)O (centres unmarked) [Example 8, 2-[3-(Mercapto-2-methyl-1-oxopropyl]octahydro-3-oxo-1H-isoindole-1-carboxylic acid, dicyclohexylamine salt] | 14 |
| CC(=O)SCC(C)C(=O)N1CC2CCCCC2C1C(=O)O (centres unmarked) [Example 3, 2-[3-(Acetylthio)-2-methyl-1-oxopropyl]octahydro-1H-isoindole-1-carboxylic acid] | 420 |
| CCOC(=O)[C@H](CCc1ccccc1)N[C@@H](C)C(=O)N1C(=O)C2CCCCC2C1C(=O)O (some centres unmarked) [Example 14, 2-[2-[(1-carbethoxy-3-phenylpropyl)amino]-1-oxopropyl]-octahydro-3-oxo-1H-isoindole-1-carboxylic acid, hydrochloride] | 340 |
| O=C(O)C1C2CCCCC2CN1C(=O)CCS (centres unmarked) [Example 2, 2-(3-Mercaptopropanoyl)octahydro-1H-isoindole-1-carboxylic acid, dicyclohexylamine salt] | 24 |
| CCOC(=O)C(CCc1ccccc1)NC(C)C(=O)N1CC2CCCCC2C1C(=O)O (centres unmarked) [Example 12, 2-[2-[(1-Carbethoxy-3-phenylpropyl)amino]-1-oxopropyl]-octahydro-1H-isoindole-1-carboxylic acid, hydrochloride] | 170 |
| CC(=O)SCCC(=O)N1C(=O)C2CCCCC2C1C(=O)O (centres unmarked) [Example 5, 2-[3-Acetylthio-1-oxopropyl]octahydro-3-oxo-1H-isoindole-1-carboxylic acid, dicyclohexylamine salt] | 660 |
| CC(=O)SCCC(=O)N1CC2CCCCC2C1C(=O)O (centres unmarked) [Example 1, 2-[3-(Acetylthio)-1-oxopropyl]octahydro-1H-isoindole-1-carboxylic acid] | 1200 |
| CC(CS)C(=O)N1CC2CCCCC2C1C(=O)O (centres unmarked) [Example 4, 2-[3-Mercapto-2-methyl-1-oxopropyl]octahydro-1H-isoindole-1-carboxylic acid] | 28 |
| O=C(O)C1C2CCCCC2C(=O)N1C(=O)CCS (centres unmarked) [Example 6, 2-[3-Mercapto-1-oxopropyl]octahydro-3-oxo-1H-isoindole-1-carboxylic acid, dicyclohexylamine salt] | 13 |
| CC(NC(CCc1ccccc1)C(=O)O)C(=O)N1CC2CCCCC2C1C(=O)O (centres unmarked) [Example 13, 2-[2-[(1-Carboxy-3-phenylpropyl)amino]-1-oxopropyl]-octahydro-1H-isoindole-1-carboxylic acid] | 2.6 |
| CC(=O)SCC(C)C(=O)N1C(=O)C2CCCCC2C1C(=O)O (centres unmarked) [Example 7, 2-[3-(Acetylthio)-2-methyl-1-oxopropyl]octahydro-3-oxo-1H-isoindole-1-carboxylic acid, dicyclohexylamine salt] | 280 |
